One assay deals with E. coli UB1005. Nature of the assay: MIC, modified microtiter dilution. The class given is cell-based, Escherichia coli. Conditions: MHB, 2–7 × 10^5 CFU/ml, 37°C, 24 h, no turbidity, at least three independent repeats. The text has this: (§1) The experiment was repeated at least three times independently.
The next assay deals with E. coli 25922. The assay is described as follows: MIC, modified microtiter dilution. The class given is cell-based, Escherichia coli. The note with it: MHB, 2–7 × 10^5 CFU/ml, 37°C, 24 h, lowest concentration with no turbidity, at least three independent repeats.
Description: as §1

For assay [1], the system named is S. aureus 29213. Nature of the assay: Histology (HE) of infected skin tissue. The class given is in vivo, ICR mice. The note with it: 24 h after injection of S. aureus. As for the experimental part: (§2) To assess the antimicrobial activity of the peptide in vivo, a mouse model of subcutaneous infection was used ([Huang et al., 2011a]; [Omolo et al., 2017]). Female Institute for Cancer Research (ICR) mice (SPF, 20–25 g) were purchased from WeiTonglihua Co., Ltd. (Beijing, China), with eight animals per group. The mice were shaved on their backs and disinfected. S. aureus 29213 (100 μL) at a concentration of 1 × 10^8 CFU/mL was injected into the superficial skin of the mice. The mice were divided into four groups (n = 4), as follows: S. aureus + saline, S. aureus + S2 (80× MIC, 100 μL), S. aureus + vancomycin (Van) (80× MIC, 100 μL), and saline. S2, vancomycin, and saline were injected at the same site 1 h after infection. The mice were monitored over 24 h in an environmentally controlled room at 25 ± 1°C and 55 ± 5% relative humidity with a 12 h light/dark cycle.
(§3) To image the infected skin tissues, the mice were euthanized 24 h after the injection of S. aureus. Samples were fixed in 4% buffered paraformaldehyde and subjected to hematoxylin/eosin (HE) staining. The antimicrobial activity in vivo was determined by colony counting of infected skin samples. Skin homogenates were serially diluted in saline and incubated at 37°C for 24 h.

For assay [2], the system named is S. aureus 29213. Nature of the assay: Mouse model of subcutaneous infection. The class given is in vivo, ICR mice. Conditions: 80× MIC. As for the experimental part: as §2, §3
In assay [3] the test system is S. aureus 29213. Nature of the assay: Cytoplasmic membrane depolarization, diSC3-5. The format is cell-based, Staphylococcus aureus. The note with it: 0.4 μM diSC3-5, 100 mM KCl, ex 622 nm, em 670 nm. As for the experimental part:
The dye diSC3-5 was employed to assay cytoplasmic membrane depolarization activities ([Shao et al., 2018]). S. aureus 29213 was diluted to an OD600 = 0.05 after washing three times with buffer (5 mM HEPES, 5 mM glucose, pH 7.4) when the bacteria grew to mid-log phase. Then, diSC3-5 at a final concentration of 0.4 μM was added into the medium and incubated for 1–1.5 h. The final concentration of 100 mM KCl was then added to the solution for 15 min. The peptides were added to 12-well plates, which were filled with 2 mL of cell suspension. An F-4500 fluorescence spectrophotometer (Hitachi, Japan) was employed to measure the fluorescence value at an excitation wavelength of 622 nm and an emission wavelength of 670 nm. Maximal augmentation was monitored, and the fluorescence of the mixture of bacteria and dye served as the blank control.

Assay [4] concerns lipoteichoic acid (LTA) from S. aureus. Nature of the assay: LTA binding, BODIPY-TR-cadaverine displacement. Further details: species or system Staphylococcus aureus. The note with it: comparison among peptides, BC displacement. As for the experimental part:
Peptides binding to LTA were assayed using the BC (Sigma, United States) displacement method ([Zorko and Jerala, 2008]). The final concentration of 50 μg/mL LTA from S. aureus was incubated with 5 μg/mL BC in Tris-HCl buffer (50 mM, pH 7.4) for 4 h in a shaking incubator at 37°C. The peptides were then serially diluted in Tris–HCl buffer, and an equal volume solution was added to the 96-well plates. The fluorescence was measured (excitation λ = 580 nm, emission λ = 620 nm) on a spectrofluorophotometer (Infinite 200 Pro, Tecan, China). The experiment was conducted three times independently.

The structures appear in SMILES notation. Positions of bridges follow the written chain, without caps; N, C: chain ends. Residues, ends and D or L forms follow the SMILES beside them.

As to `CC(C)C[C@H](NC(=O)[C@H](CC(C)C)NC(=O)[C@H](Cc1c[nH]c2ccccc12)NC(=O)[C@H](Cc1c[nH]c2ccccc12)NC(=O)[C@H](Cc1c[nH]c2ccccc12)NC(=O)[C@H](CCCNC(=N)N)NC(=O)[C@@H]1CSSC[C@H](N)C(=O)N[C@@H](C)C(=O)N[C@@H](CO)C(=O)N[C@@H](Cc2ccc(O)cc2)C(=O)N[C@@H](Cc2ccccc2)C(=O)N1)C(N)=O` [Peptide S2] (H-CASYFCRWWWLL-NH2; disulfide 1-6; N-terminus assumed), the “MIC E. coli UB1005” value against E. coli UB1005 is above 64 µM. Besides, in the assay on E. coli 25922, the “MIC E. coli 25922” value is above 64 µM. The “histomorphological changes of skin tissue (HE)” value with S. aureus 29213 [1] is reported as “good recovery”. The “decrease in bacterial colonies at infection site versus control group” value in the assay with S. aureus 29213 [2] (100 μL injected at the infected site 1 h after infection, skin homogenate colony count after 24 h, P < 0.01) stood at 10 fold. Moreover, the “ulceration (lesion) size, length × width” value in the assay with S. aureus 29213 [2] (100 μL, 1 h after infection) is “significantly reduced ulceration sizes”. Moreover, the “cytoplasmic membrane depolarization (diSC3-5 fluorescence)” value in the assay with S. aureus 29213 [3] is listed as “rapid fluorescence intensity increase”. The “relative binding capacity to LTA” value in assay [4] is “stronger binding capacity to LTA than S1 and S3”.

(Values after article PMC7516806, “Hybrid Antimicrobial Peptide Targeting Staphylococcus aureus and Displaying Anti-infective Activity in a Murine Model” (Frontiers in Microbiology, 2020).)
